Laboratory results as given in ChEMBL document CHEMBL4190217, “Botrysphones A-C and Botrysphins A-F, Triketides and Diterpenoids from the Fungus Botrysphaeria laricina” (J Nat Prod, 2017).
pIC50: −log10 of the molar value.

Assays:
Type in all cases: cell-based
[1] = Cytotoxicity against mouse Hepa1c1c7 cells assessed as reduction in cell viability by MTT assay; details: Hepa-1c1c7
[2] = Cytotoxicity against mouse Hepa1c1c7 cells assessed as reduction in cell viability at 0.125 uM by MTT assay
[3] = Cytotoxicity against mouse Hepa1c1c7 cells assessed as reduction in cell viability at 2.5 uM by MTT assay

| Structure (SMILES) | pIC50 [1] | Activity [2] | Activity [3] |
| --- | --- | --- | --- |
| C=C[C@]1(C)C=C2C(=O)[C@@]3(O)OC(=O)[C@@]4(CCCC(C)(C)[C@H]34)[C@@]2(O)CC1 [SPHAEROPSIDIN A] | 5.68 | Non-Toxic |  |
| C[S+]([O-])CCCCN=C=S (centres undefined) [SULFORAPHANE] | 4.80 |  |  |
| C=C[C@@]1(C)CCC2=C(C(=O)C(O)=C3C(C)(C)CCC[C@]23C(=O)O[C@H]2C(=O)C=C(OC)[C@@H](O)[C@H]2O)[C@H]1O | 4.34 |  | Non-Toxic |
| C=C[C@@]1(C)CC(=O)C2=C(CC[C@H]3C(C)(C)CCC[C@]23C)[C@H]1O | < 4.30 |  |  |
| C=C[C@]1(C)C=C2[C@@H](O)[C@@]3(O)OC(=O)[C@@]4(CCCC(C)(C)[C@H]34)[C@@]2(O)CC1 [SPHAEROPSIDIN B] | < 4.30 |  |  |
| COC1=CC(=O)[C@H](Cl)[C@H](O)[C@@H]1O | < 4.30 |  |  |
| COC1=CC(=O)[C@@H]2O[C@@H]2[C@@H]1O | < 4.30 |  |  |
